Data taken from PMC7424068, “Design, Synthesis, and Biological Evaluation of Novel Thiazolidinone-Containing Quinoxaline-1,4-di-N-oxides as Antimycobacterial and Antifungal Agents” (Frontiers in Chemistry, 2020).
≈ marks a conversion by molar mass, not a printed value. Where two headings read alike, the source gives them in different places.

How the values were obtained:
[1] = test system: Mtb H37Rv (ATCC27294); assay: Antimycobacterial activity, microplate Alamar blue assay (MABA); format: cell-based, Mycobacterium tuberculosis; conditions: for antimycobacterial activity (in words): Mtb strain H37Rv
[2] = test system: C. albicans (ATCC90028); assay: Antifungal activity, broth microdilution; format: cell-based, Candida albicans; conditions: Candida albicans ATCC 90028, read-out: MIC
Protocol: (§1) All synthesized compounds and the positive control drugs amphotericin B and ketoconazole were tested for their in vitro antifungal activity. Antifungal activity was evaluated against four fungi, C. albicans (ATCC90028), C. tropicalis (ATCC7349), A. fumigatus (3.5352), and C. neoformans (2.3201), by broth microdilution according to the protocols from the NCCLS (Jiang et al., [2014]). Briefly, all tested compounds were dissolved in DMSO, and the solutions were diluted with fresh broth medium. All of the fungi-seeded broth (1 × 10^5 colony-forming units [CFU]/mL) were prepared in RPMI 1640 medium and added into the serially diluted drug solution. The tubes were incubated at 28°C, and the MIC (μg/mL) was recorded 72–96 h post-incubation. Broth control (without fungi), growth controls (with fungi and without drug), solvent (DMSO) control, and drug control for both test drugs and standard drugs were set under identical conditions. The minimum drug concentration in the tubes in which no apparent growth of the organism was observed represented the MIC of the compounds.

[3] = test system: VERO cell line; assay: Cytotoxicity MTT assay; format: cell-based; conditions: Chlorocebus sabaeus, cytotoxicity in VERO cells, 72 h
Protocol: VERO cells (2 × 10^4 cells) were seeded into 96-well plates and incubated for 12 h. Serial dilutions of the compounds were mixed with the cell suspension in the plates. Both treated cells and blank and solvent controls were incubated for 72 h, followed by incubation with MTT (0.5 mg/mL) for another 4 h. The microplates were measured at 570 nm using a multimode reader (Infinite M200, Tecan). The percentage of viable cells was calculated as the mean with respect to the controls set to 100%. Triplicate wells were analyzed for each concentration. IC50 was defined as the concentration that reduced the viable cells by 50% compared to the untreated control cells. It was considered significant when the SI was more than 10.

[4] = test system: C. tropicalis (ATCC7349); assay: Antifungal activity, broth microdilution; format: cell-based; conditions: Candida tropicalis, C. tropicalis ATCC 7349, read-out: MIC
Protocol: as §1

[5] = test system: A. fumigatus (3.5352); assay: Antifungal activity, broth microdilution; format: cell-based; conditions: Aspergillus fumigatus; A. fumigatus 3.5352; read-out: MIC
Protocol: as §1

[6] = test system: C. neoformans (2.3201); assay: Antifungal activity, broth microdilution; format: cell-based; conditions: Cryptococcus neoformans; C. neoformans 2.3201; read-out: MIC
Protocol: as §1

[7] = Mycobacterium tuberculosis, Mtb H37Rv, MABA assay, read-out: MIC
[8] = Mycobacterium tuberculosis, Mtb H37Rv, repeated in Table 5 for the 3D-QSAR models, read-out: MIC
[9] = Mycobacterium tuberculosis, experimental pMIC, Mtb H37Rv, Table 5, read-out: pMIC exp (converted)

O=C1CSC(c2c[n+]([O-])c3ccc(Cl)cc3[n+]2[O-])N1c1ccccc1 (stereo not shown) [2v, 7-Cl-2-(3′-phenyl-4′(5H)-thiazolidinone)-quinoxaline-1,4-di-N-oxide]
melting point: 248 to 250 °C
MIC [1, 7]: ≤ 3.13 µg/mL
MIC [1, 8]: 3.13 µg/mL
MIC [1, 9]: 8.39 µM
MIC [2]: 8 µg/mL (≈ 21.4 µM)
IC50 [3]: 119 µg/mL (≈ 318 µM)
MIC [4]: 8 µg/mL (≈ 21.4 µM)
MIC [5]: 4 µg/mL (≈ 10.7 µM)
MIC [6]: 8 µg/mL (≈ 21.4 µM)

O=C1CSC(c2c[n+]([O-])c3ccccc3[n+]2[O-])N1c1ccc(F)cc1 (stereo not shown) [2d, 2-(3′-P-fluorophenyl-4′(5H)-thiazolidinone)-quinoxaline-1,4-di-N-oxide]
melting point: 240 to 242 °C
antimycobacterial activity (in words) [1]: good antimycobacterial activity
MIC [1, 7]: 3.13 µg/mL
MIC [1, 8]: 3.13 µg/mL
MIC [1, 9]: 8.77 µM
MIC [2]: 16 µg/mL (≈ 44.8 µM)
IC50 [3]: 123 µg/mL (≈ 344 µM)
MIC [4]: 8 µg/mL (≈ 22.4 µM)
MIC [5]: 32 µg/mL (≈ 89.5 µM)
MIC [6]: 8 µg/mL (≈ 22.4 µM)

Cc1ccc(N2C(=O)CSC2c2c[n+]([O-])c3ccccc3[n+]2[O-])cc1 (stereo not shown) [2b, 2-(3′-P-methylphenyl-4′(5H)-thiazolidinone)-quinoxaline-1,4-di-N-oxide]
melting point: 251 to 253 °C
MIC [1, 7]: 12.5 µg/mL
MIC [1, 8]: 12.5 µg/mL
MIC [1, 9]: 35.4 µM
MIC [2]: 16 µg/mL (≈ 45.3 µM)
MIC [4]: 8 µg/mL (≈ 22.6 µM)
MIC [5]: 32 µg/mL (≈ 90.5 µM)
MIC [6]: 32 µg/mL (≈ 90.5 µM)

N=C1NC(=O)/C(=C/c2c[n+]([O-])c3ccccc3[n+]2[O-])S1 [V, 2-(2′-iminothiazolidin-4′-one)-quinoxaline-1,4-di-N-oxide]
MIC ([1]; Mtb H37Rv, MABA assay): >50 µg/mL
MIC [1, 7]: > 50 µg/mL

COc1ccc2c(c1)[n+]([O-])c(C1SCC(=O)N1c1ccc(C)cc1)c[n+]2[O-] (stereo not shown) [2m, 7-OMe-2-(3′-P-methylphenyl-4′(5H)-thiazolidinone)-quinoxaline-1,4-di-N-oxide]
melting point: 257 to 259 °C
MIC [1, 7]: 100 µg/mL
MIC [1, 8]: 100 µg/mL
MIC [1, 9]: 261 µM
MIC [2]: > 64 µg/mL
MIC [4]: 64 µg/mL (≈ 167 µM)
MIC [5]: > 64 µg/mL
MIC [6]: > 64 µg/mL

CO[C@H]1/C=C/O[C@@]2(C)Oc3c(C)c(O)c4c(O)c(c(/C=N/N5CCN(C)CC5)c(O)c4c3C2=O)NC(=O)/C(C)=C\C=C\[C@H](C)[C@H](O)[C@@H](C)[C@@H](O)[C@@H](C)[C@H](OC(C)=O)[C@@H]1C [RMP, Rifampicin, reference compound]
MIC ([1]; Mycobacterium tuberculosis): 0.125 µg/mL

Cc1ccc(N2C(=O)CSC2c2c[n+]([O-])c3ccc(F)cc3[n+]2[O-])cc1 (stereo not shown) [2r, 7-F-2-(3′-P-methylphenyl-4′(5H)-thiazolidinone)-quinoxaline-1,4-di-N-oxide]
melting point: 249 to 251 °C
MIC [1, 7]: 12.5 µg/mL
MIC [1, 8]: 12.5 µg/mL
MIC [1, 9]: 33.7 µM
MIC [2]: 8 µg/mL (≈ 21.5 µM)
MIC [4]: 8 µg/mL (≈ 21.5 µM)
MIC [5]: 8 µg/mL (≈ 21.5 µM)
MIC [6]: 16 µg/mL (≈ 43.1 µM)

Cc1ccc2c(c1)[n+]([O-])c(C1SCC(=O)N1c1ccc(F)cc1)c[n+]2[O-] (stereo not shown) [2j, 7-CH3-2-(3′-P-fluorophenyl-4′(5H)-thiazolidinone)-quinoxaline-1,4-di-N-oxide]
melting point: 243 to 245 °C
antimycobacterial activity (in words) [1]: good antimycobacterial activity
MIC [1, 7]: 6.25 µg/mL
MIC [1, 8]: 6.25 µg/mL
MIC [1, 9]: 16.9 µM
MIC [2]: 16 µg/mL (≈ 43.1 µM)
IC50 [3]: 114 µg/mL (≈ 306 µM)
MIC [4]: 8 µg/mL (≈ 21.5 µM)
MIC [5]: 32 µg/mL (≈ 86.2 µM)
MIC [6]: 16 µg/mL (≈ 43.1 µM)

O=C1CSC(c2c[n+]([O-])c3ccc(F)cc3[n+]2[O-])N1c1ccccc1 (stereo not shown) [2q, 7-F-2-(3′-phenyl-4′(5H)-thiazolidinone)-quinoxaline-1,4-di-N-oxide]
melting point: 249 to 252 °C
MIC [1, 7]: 6.25 µg/mL
MIC [1, 8]: 6.25 µg/mL
MIC [1, 9]: 17.5 µM
MIC [2]: 8 µg/mL (≈ 22.4 µM)
IC50 [3]: 126 µg/mL (≈ 354 µM)
MIC [4]: 4 µg/mL (≈ 11.2 µM)
MIC [5]: 16 µg/mL (≈ 44.8 µM)
MIC [6]: 16 µg/mL (≈ 44.8 µM)

Cc1ccc2c(c1)[n+]([O-])c(C1SCC(=O)N1c1ccccc1)c[n+]2[O-] (stereo not shown) [2g, 7-CH3-2-(3′-phenyl-4′(5H)-thiazolidinone)-quinoxaline-1,4-di-N-oxide]
melting point: 255 to 257 °C
MIC [1, 7]: 12.5 µg/mL
MIC [1, 8]: 12.5 µg/mL
MIC [1, 9]: 35.4 µM
MIC [2]: 32 µg/mL (≈ 90.5 µM)
MIC [4]: 16 µg/mL (≈ 45.3 µM)
MIC [5]: 32 µg/mL (≈ 90.5 µM)
MIC [6]: 32 µg/mL (≈ 90.5 µM)
